Measured values published in ChEMBL document CHEMBL1201862, “PubChem BioAssay data set” (2004).
Calls of active or inactive are those of the source.

What was measured:
[1] = target: T1, Carboxy-terminal domain RNA polymerase II polypeptide A small phosphatase 1 (Homo sapiens, UniProt Q9GZU7); assay: inhibitors of CTDSP1, concentration-response testing, biochemical assay, absorbance-based, actives from ultra-high-throughput screening (AID 540297); assay type: functional
T1 sequence (Q9GZU7 whole entry): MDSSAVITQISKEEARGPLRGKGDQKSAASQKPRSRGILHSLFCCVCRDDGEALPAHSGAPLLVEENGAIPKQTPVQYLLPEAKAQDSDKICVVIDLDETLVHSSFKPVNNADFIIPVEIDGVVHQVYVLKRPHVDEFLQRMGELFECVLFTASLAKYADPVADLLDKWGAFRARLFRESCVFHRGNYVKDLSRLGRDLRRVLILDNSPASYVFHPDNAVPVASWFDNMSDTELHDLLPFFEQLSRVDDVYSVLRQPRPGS

[2] = target: C-C chemokine receptor type 6 (Homo sapiens, UniProt P51684); assay: CCR6 receptor antagonists, dose response, cell-based, luminescent beta-arrestin readout (AID 504728); assay type: functional
[3] = target: Induced myeloid leukemia cell differentiation protein Mcl-1 (Homo sapiens, UniProt Q07820); assay type: functional
Sequence of Induced myeloid leukemia cell differentiation protein Mcl-1 (Q07820 whole entry): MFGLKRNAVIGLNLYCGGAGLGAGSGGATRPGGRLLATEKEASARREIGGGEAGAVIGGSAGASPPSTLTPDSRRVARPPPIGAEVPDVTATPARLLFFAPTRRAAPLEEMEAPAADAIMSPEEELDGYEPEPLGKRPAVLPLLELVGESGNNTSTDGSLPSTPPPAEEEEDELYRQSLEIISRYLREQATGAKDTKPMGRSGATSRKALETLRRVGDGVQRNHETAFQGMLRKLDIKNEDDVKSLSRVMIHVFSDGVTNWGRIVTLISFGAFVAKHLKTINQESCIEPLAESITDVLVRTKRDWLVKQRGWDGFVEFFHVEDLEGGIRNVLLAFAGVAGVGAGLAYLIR

Genome polyprotein = Genome polyprotein (Hepatitis C virus, UniProt Q2Q167); assay: HCV core protein dimerization inhibitors, dose response, biochemical, TR-FRET (AID 2159); parameters: species or system Hepacivirus hominis;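 note: blocks dimerization of HCV core protein measured by TR-FRET between tagged core106 pairs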
[4] = target: T2, Calpain-2 catalytic subunit (Sus scrofa, UniProt P43367); assay: pig calpain II inhibitor potency, dose response, biochemical, fluorogenic peptide substrate (AID 1420); assay type: functional
T2 sequence (P43367 whole entry): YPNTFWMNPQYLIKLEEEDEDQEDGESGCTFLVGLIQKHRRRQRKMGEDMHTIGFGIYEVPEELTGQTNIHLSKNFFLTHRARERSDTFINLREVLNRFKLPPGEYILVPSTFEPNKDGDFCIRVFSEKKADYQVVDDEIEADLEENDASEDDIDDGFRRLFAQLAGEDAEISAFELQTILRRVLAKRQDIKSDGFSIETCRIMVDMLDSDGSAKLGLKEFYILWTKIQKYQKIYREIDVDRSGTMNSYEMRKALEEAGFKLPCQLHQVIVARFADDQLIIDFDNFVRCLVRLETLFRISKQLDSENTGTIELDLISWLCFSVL

[5] = target: T3, Low molecular weight phosphotyrosine protein phosphatase (Homo sapiens, UniProt P24666); assay type: functional; conditions: read-out: IC50_Mean
T3 sequence (P24666 whole entry): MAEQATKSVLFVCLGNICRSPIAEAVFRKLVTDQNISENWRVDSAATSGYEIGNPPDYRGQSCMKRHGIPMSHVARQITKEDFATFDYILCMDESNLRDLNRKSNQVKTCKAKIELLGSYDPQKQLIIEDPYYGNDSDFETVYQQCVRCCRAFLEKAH

[6] = target: Eukaryotic translation initiation factor 4E (Mus musculus, UniProt P63073); assay: eIF4E–eIF4G protein interaction inhibitors, dose response, biochemical, TR-FRET (AID 855); assay type: functional;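 note: potency for disrupting eIF4E binding to eIF4GI seen as loss of FRET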
Sequence of Eukaryotic translation initiation factor 4E (P63073 whole entry): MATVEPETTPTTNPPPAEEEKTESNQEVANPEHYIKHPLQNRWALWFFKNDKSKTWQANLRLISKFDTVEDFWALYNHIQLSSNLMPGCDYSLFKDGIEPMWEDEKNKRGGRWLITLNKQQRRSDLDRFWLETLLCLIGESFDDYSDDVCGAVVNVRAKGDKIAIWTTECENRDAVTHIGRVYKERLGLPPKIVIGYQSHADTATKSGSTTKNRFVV

[7] = target: T3, Low molecular weight phosphotyrosine protein phosphatase; assay type: functional; conditions: read-out: IC50_Mean; remark: listed apart in the source
Beta-galactosidase = Beta-galactosidase (Escherichia coli, UniProt Q8VNN2); assay: beta-galactosidase enzyme inhibitors and activators, dose response, artefact control for CCR6 antagonist project, biochemical, E. coli enzyme, set 3 (AID 504712); assay type: functional
Sequence of Beta-galactosidase (Q8VNN2 whole entry): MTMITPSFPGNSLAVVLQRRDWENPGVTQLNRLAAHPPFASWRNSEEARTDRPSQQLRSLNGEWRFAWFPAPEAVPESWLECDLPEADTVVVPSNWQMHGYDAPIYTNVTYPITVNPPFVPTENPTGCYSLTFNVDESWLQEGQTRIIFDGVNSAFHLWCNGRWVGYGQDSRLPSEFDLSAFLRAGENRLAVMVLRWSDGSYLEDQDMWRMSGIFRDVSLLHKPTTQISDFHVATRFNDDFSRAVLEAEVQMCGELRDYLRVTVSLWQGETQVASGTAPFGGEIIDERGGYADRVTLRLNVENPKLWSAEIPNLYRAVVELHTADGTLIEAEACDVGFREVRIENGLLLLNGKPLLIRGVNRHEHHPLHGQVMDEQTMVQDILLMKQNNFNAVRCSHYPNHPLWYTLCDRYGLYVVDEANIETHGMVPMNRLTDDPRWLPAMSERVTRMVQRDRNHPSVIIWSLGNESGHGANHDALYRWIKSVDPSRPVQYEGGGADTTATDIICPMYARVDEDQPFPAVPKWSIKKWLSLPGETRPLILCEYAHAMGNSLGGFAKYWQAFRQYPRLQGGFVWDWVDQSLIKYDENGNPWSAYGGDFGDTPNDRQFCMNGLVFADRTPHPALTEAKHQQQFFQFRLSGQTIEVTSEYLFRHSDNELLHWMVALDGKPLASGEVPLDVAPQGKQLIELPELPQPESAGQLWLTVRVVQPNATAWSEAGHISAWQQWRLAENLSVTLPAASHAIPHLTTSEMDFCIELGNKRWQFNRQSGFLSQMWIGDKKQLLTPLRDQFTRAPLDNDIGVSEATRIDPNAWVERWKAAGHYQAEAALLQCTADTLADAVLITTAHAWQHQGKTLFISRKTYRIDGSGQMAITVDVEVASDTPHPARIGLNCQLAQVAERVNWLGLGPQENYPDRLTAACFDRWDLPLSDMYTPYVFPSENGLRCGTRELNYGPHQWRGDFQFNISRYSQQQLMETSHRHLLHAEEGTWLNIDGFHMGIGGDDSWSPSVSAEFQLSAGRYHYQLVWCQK

[8] = target: T4, G-protein coupled receptor 35 (Homo sapiens, UniProt Q9HC97); assay: GPR35 antagonists blocking zaprinast-driven arrestin recruitment, primary screen, imaging, U2OS, beta-arrestin-GFP, zaprinast agonist (AID 2058); assay type: functional;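 note: antagonist potency meaning inhibition of agonist-induced arrestin redistribution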
T4 sequence (Q9HC97 whole entry): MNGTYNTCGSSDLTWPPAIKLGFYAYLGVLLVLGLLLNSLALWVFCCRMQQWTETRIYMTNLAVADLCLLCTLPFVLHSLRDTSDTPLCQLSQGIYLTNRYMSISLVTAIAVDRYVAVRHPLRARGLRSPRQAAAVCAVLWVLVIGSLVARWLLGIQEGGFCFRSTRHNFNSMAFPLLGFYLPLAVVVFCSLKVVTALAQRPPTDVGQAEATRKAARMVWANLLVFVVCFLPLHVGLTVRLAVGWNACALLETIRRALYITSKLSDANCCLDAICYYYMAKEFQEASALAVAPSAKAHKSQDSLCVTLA

[9] = target: T5, Tyrosine-protein phosphatase non-receptor type 22 (Homo sapiens, UniProt Q9Y2R2); assay: LYP (PTPN22) phosphatase inhibitor potency, SAR follow-up, biochemical, pCAP fluorogenic substrate, fluorescence, set 3 (AID 449727); assay type: functional
T5 sequence (Q9Y2R2 whole entry): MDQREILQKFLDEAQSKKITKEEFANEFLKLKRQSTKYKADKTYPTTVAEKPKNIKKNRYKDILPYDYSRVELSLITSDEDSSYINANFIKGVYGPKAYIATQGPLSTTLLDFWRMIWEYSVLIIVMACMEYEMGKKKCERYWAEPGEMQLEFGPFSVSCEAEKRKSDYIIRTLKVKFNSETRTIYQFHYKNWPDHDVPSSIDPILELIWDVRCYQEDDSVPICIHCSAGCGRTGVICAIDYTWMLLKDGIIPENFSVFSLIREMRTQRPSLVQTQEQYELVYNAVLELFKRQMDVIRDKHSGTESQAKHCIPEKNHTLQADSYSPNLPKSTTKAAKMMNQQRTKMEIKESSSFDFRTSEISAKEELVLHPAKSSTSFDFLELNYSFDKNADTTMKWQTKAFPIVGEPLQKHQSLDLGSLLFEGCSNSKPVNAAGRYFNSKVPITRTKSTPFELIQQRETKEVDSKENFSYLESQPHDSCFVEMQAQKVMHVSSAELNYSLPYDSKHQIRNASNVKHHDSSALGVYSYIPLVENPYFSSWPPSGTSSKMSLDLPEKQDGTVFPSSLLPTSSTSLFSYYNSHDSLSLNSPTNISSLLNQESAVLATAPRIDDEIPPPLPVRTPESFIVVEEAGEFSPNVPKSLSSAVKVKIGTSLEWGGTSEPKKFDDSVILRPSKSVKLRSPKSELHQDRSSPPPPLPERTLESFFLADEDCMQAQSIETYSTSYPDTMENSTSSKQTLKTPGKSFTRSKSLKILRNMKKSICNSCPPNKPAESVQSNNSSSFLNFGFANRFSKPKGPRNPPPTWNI

[10] = target: 26S proteasome non-ATPase regulatory subunit 14 (Homo sapiens, UniProt O00487); assay: inhibition of proteasome subunit RPN11 – biochemical, fluorescence polarization, uHTS hits, confirmation (AID 602368); assay type: functional
Sequence of 26S proteasome non-ATPase regulatory subunit 14 (O00487 whole entry): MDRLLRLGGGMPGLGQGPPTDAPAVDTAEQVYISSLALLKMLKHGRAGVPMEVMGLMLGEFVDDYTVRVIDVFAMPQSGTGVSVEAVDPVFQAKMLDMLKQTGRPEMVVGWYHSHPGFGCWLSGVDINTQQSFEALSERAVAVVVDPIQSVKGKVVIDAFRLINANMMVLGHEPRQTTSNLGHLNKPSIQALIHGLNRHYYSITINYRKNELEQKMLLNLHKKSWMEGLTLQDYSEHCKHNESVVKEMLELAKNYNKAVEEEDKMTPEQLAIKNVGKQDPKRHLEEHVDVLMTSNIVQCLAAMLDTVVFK

[11] = target: G-protein coupled receptor 55 (Homo sapiens, UniProt Q9Y2T6); assay: GPR55 antagonists, SAR follow-up, counter-screen for GPR35 antagonist project, imaging, image-based (AID 2397); assay type: functional
[12] = target: 72 kDa type IV collagenase (Homo sapiens, UniProt P08253); assay: Dose Response validation of uHTS RPN11 inhibitor hits using a MMP-2 Fluorescence assay.; assay type: functional
Sequence of 72 kDa type IV collagenase (P08253 whole entry): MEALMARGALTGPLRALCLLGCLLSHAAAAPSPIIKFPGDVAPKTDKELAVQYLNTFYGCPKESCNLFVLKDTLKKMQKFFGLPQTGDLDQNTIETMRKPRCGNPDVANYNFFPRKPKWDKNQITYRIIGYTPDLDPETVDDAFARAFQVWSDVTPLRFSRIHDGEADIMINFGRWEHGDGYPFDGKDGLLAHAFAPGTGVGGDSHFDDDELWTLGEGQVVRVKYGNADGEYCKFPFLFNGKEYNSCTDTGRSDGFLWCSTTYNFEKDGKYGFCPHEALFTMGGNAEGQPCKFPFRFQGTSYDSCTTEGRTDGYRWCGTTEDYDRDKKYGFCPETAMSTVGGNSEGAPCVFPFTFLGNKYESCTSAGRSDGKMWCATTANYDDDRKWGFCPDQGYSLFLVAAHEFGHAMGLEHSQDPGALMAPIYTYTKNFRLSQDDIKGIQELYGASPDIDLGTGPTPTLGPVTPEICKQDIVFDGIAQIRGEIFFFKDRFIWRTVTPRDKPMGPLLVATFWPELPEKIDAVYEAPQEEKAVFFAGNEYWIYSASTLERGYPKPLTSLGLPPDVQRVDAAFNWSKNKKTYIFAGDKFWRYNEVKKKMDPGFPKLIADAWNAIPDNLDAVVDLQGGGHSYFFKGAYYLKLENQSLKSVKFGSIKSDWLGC

[13] = target: T4, G-protein coupled receptor 35; assay: SAR Analysis for the identification of Selective Antagonists of ERK1/2 Activity in GPR35-Overexpressing U2OS Cells. [Related pubchem assays: 2079, 2058 ]; assay type: functional, cell-based
Prothrombin = Prothrombin (Bos taurus, UniProt P00735); assay: thrombin inhibition, dose response, biochemical, fluorescence polarization, uHTS hits (AID 602369); assay type: functional
[14] = target: Tyrosine-protein phosphatase non-receptor type 12 (Homo sapiens, UniProt Q05209); assay: SAR Selectivity Analysis of small molecule inhibitors of PEST using pCAP in a fluorescence assay. [Related pubchem assays (depositor defined):AID1779, AID1784, AID2135]; assay type: functional
Sequence of Tyrosine-protein phosphatase non-receptor type 12 (Q05209 whole entry): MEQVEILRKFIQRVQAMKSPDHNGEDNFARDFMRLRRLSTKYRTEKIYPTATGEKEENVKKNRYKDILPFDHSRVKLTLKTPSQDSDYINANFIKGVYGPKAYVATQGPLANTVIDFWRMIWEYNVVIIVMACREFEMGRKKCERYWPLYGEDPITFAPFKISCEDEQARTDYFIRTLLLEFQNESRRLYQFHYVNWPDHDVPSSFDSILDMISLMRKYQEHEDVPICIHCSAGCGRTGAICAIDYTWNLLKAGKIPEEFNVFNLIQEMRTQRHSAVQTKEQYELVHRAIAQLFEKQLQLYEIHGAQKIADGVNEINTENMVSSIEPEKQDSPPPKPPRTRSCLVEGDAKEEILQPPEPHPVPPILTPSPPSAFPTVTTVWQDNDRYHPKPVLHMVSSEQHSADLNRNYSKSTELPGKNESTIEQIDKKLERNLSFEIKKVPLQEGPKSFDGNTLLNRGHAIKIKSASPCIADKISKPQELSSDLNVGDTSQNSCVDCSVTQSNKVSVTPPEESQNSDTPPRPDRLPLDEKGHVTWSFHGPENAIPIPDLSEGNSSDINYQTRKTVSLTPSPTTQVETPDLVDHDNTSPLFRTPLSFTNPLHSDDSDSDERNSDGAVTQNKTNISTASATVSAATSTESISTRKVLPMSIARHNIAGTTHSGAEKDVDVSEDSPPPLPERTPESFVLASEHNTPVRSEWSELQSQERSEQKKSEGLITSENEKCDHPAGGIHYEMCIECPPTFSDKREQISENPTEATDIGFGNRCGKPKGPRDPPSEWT

[15] = target: T5, Tyrosine-protein phosphatase non-receptor type 22; assay: SAR LYP1 Fluorescent Assay using OMFP substrate for In Vitro dose response studies - Set 3. [Related pubchem assays (depositor defined):AID1779, AID1784, AID2140, AID2686]; assay type: functional
[16] = cytotoxicity in HEK-293T cells, dose response, cytotoxicity control for BCR NF-kB inhibitor project, luminescence, B-cell screen hits (AID 489021); assay type: functional, cell-based;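 note: HEK-293T cells carrying an NF-kB luciferase reporter; cells exposed to compound for about 14 hours before viability readout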
[17] = target: T6, RNA-binding protein pos-1 (Caenorhabditis elegans, UniProt G5EF15); assay: inhibitors of POS-1/mex-3 RNA binding, dose response, biochemical, fluorescence polarization (AID 1964);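 note: purified POS-1 fused to maltose binding protein made in E. coli; potency of compounds blocking POS-1 binding to fluorescent RNA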
T6 sequence (G5EF15 whole entry): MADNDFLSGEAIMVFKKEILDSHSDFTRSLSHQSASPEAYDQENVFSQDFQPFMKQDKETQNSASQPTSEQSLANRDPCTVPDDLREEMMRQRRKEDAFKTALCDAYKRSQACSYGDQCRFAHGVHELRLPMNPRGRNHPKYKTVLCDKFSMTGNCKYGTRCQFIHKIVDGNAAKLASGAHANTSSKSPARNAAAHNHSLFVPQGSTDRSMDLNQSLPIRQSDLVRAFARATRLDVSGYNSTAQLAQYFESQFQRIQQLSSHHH

[18] = target: Neurotensin receptor type 1 (Homo sapiens, UniProt P30989); assay type: functional;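 note: Image-based confirmatory dose-response assay measuring agonist activity at NTR1; NTR1-expressing U2OS osteosarcoma cells imaged for beta-arrestin GFP spot formation; agonist potency where compounds increase beta-arrestin recruitment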
Sequence of Neurotensin receptor type 1 (P30989 whole entry): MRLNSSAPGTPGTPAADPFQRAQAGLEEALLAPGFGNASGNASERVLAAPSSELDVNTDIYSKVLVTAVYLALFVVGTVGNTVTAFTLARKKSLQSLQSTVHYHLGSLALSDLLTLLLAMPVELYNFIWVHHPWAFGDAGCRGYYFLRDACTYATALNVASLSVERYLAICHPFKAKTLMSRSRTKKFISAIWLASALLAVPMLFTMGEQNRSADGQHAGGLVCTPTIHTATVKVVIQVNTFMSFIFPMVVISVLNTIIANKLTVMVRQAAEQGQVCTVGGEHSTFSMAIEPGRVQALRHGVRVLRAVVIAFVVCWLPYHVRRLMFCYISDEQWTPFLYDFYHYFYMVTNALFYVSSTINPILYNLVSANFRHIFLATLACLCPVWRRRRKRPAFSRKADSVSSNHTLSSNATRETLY

[19] = target: T7, Zinc finger protein mex-5 (Caenorhabditis elegans, UniProt Q9XUB2); assay: MEX-5/TCR-2 RNA interaction inhibitors, dose response, biochemical, C. elegans, fluorescence polarization (AID 1960)
T7 sequence (Q9XUB2 whole entry): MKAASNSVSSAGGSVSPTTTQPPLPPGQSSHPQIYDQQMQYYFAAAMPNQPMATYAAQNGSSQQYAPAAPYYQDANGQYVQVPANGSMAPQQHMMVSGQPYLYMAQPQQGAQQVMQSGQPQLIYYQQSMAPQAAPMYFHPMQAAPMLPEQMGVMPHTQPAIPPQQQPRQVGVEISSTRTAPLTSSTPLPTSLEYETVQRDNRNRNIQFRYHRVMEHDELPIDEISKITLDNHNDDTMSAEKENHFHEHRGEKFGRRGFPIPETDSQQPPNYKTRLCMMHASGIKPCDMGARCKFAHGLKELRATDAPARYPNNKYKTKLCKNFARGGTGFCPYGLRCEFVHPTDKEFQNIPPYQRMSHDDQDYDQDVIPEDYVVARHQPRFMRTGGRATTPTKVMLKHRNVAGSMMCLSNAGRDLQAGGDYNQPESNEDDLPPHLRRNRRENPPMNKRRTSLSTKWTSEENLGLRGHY

O=C(N=Nc1c(O)[nH]c2ccc([N+](=O)[O-])cc12)c1cc(-c2ccccc2Cl)nc2ccccc12
IC50 [1]: 711 nM (active)
IC50 [2]: > 66.6 µM (inactive)
IC50 [3]: 1.18 µM (active)
IC50 (Genome polyprotein): > 49.8 µM (not active)
IC50 [4]: 4.56 µM (not active)
IC50 [5]: 1.98 µM (active)
IC50 [6]: > 64 µM (inactive)
IC50 [7]: 2.89 µM (active)
IC50 (Beta-galactosidase): > 66.6 µM (inactive)

COc1ccc(/C=C2\SC(=S)N(CCCC(=O)Nc3cccc(C(=O)O)c3)C2=O)cc1OC
IC50 [8]: 564 nM (active)
IC50 [9]: 95.9 µM (active)
IC50 [10]: 17.7 µM (active)
IC50 [11]: > 32 µM (inactive)
IC50 [12]: > 100 µM (inactive)
IC50 [13]: 1.2 µM (active)
IC50 (Prothrombin): 23.9 µM (active)
IC50 [14]: 58.8 µM (active)
IC50 [15]: > 100 µM (inactive)

NC(=S)N=Nc1c(O)n(Cc2ccccc2)c2ccccc12
IC50 [16]: > 80 µM (inactive)

O=C(CC1Nc2ccccc2NC1=O)Nc1cc(Cl)cc(Cl)c1 (configuration not stated)
EC50 [17]: 152 µM (active)
EC50 [18]: 8.64 µM (active)
EC50 [19]: > 300 µM (not active)
